Data as given in patent US20220347175A1, “PYRIDAZINONE DERIVATIVE” (Sumitomo Dainippon Pharma Co., Ltd., priority 2018, published 2022).

Assays:
human Nav1.1 = target: T1, human Nav1.1 (Homo sapiens, UniProt P35498); test: Amplification of Nav1.1-derived voltage-dependent sodium current (Nav1.1 current), cell line stably expressing human Nav1.1, automated patch clamp; type: cell-based
T1 construct: host or cells: HEK293
Summary of the method: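 Amplification rate (%) is 100 × post-compound/pre-compound Nav1.1 peak current or AUC, minus 100. Ramp-evoked sodium currents were recorded by automated patch clamp in a human Nav1.1 HEK293 stable line, restricted to cells exceeding 500 pA, with compounds added in extracellular solution containing 1% DMSO.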

human Nav1.5 = target: T2, human Nav1.5 (Homo sapiens, UniProt Q14524); test: Amplification of Nav1.5-derived voltage-dependent sodium current (Nav1.5 current), cell line stably expressing human Nav1.5, automated patch clamp; type: cell-based
T2 construct: expressed in transfected cells; host or cells: CHO-K1 (T-REx System, ThermoFisher Scientific)

[1] = compound 1 μmol/L, HEK293 stably expressing human Nav1.1
[2] = compound 1 μmol/L, CHO-K1 stably expressing human Nav1.5
[3] = 10 μmol/L compound, change of the area under the curve of Nav1.1 current (Test Result 1)
[4] = 10 μmol/L compound, change of the area under the curve of Nav1.5 current (Test Result 1)

T2 sequence (Q14524 1-2015 isoform Q14524-2): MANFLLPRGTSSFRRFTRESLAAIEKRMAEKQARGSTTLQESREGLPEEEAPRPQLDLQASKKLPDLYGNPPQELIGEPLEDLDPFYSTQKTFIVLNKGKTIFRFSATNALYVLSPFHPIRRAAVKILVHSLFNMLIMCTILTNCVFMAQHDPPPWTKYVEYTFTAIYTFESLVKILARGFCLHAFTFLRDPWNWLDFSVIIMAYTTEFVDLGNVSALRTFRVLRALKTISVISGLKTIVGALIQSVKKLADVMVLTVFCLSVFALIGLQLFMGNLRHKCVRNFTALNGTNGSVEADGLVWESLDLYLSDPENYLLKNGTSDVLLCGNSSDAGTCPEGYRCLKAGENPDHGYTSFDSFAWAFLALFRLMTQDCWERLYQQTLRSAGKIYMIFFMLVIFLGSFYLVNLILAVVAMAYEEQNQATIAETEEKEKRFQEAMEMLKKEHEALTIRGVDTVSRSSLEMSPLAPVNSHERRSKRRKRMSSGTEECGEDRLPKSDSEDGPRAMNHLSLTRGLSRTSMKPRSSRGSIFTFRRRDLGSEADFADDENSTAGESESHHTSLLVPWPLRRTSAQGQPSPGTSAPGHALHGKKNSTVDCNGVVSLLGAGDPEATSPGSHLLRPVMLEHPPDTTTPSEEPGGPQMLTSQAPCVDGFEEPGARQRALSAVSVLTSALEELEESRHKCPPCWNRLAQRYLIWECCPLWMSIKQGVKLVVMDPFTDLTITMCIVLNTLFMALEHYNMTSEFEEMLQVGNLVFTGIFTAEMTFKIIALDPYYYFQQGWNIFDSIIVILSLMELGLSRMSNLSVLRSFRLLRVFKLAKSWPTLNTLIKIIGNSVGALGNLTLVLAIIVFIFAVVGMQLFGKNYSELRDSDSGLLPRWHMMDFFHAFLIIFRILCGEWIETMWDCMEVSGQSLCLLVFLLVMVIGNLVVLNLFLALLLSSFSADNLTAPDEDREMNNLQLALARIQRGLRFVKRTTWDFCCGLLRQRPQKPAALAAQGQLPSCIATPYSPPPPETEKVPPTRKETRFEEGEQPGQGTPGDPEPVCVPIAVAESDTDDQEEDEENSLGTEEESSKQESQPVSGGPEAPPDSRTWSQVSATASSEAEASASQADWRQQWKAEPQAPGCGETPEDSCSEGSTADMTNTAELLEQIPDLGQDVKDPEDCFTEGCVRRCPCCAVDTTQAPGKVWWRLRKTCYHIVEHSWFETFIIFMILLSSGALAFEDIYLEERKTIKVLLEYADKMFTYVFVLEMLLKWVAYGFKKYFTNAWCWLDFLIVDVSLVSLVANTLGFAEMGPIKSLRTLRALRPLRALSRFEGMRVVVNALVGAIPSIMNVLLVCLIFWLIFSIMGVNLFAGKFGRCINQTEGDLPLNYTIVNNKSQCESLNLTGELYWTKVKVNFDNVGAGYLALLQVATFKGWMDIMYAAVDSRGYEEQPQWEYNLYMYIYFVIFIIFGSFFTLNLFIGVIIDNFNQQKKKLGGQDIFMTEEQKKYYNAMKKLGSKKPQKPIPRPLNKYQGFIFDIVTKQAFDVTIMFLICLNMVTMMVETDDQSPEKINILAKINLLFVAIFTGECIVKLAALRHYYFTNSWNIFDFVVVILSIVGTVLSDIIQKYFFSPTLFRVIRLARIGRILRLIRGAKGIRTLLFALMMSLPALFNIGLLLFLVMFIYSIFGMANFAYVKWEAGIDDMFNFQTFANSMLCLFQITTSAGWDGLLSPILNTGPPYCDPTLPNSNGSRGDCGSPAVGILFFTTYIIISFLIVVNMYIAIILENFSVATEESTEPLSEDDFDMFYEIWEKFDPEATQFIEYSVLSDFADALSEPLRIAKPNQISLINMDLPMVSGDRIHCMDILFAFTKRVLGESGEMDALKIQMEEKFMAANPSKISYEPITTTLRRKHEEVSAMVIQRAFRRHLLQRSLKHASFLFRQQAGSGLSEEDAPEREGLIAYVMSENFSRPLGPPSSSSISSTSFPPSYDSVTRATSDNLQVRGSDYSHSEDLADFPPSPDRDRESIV

Row | Structure (SMILES) | Nav1.1 current amplification rate (%) (human Nav1.1; [3]) | Nav1.5 current amplification rate (%) (human Nav1.5; [4]) | other results
1 | CC1CC=C(c2ccc(=O)n(CC(=O)Nc3ccc(C#N)nc3)n2)CC1 (racemic) [Example 360] | – | – | Nav1.1 current amplification rate (%) (human Nav1.1; [1]): 200%; Nav1.5 current amplification rate (%) (human Nav1.5; [2]): 100%
2 | Cc1nccn1-c1ccc(NC(=O)Cn2nc(C3=CCC(C)CC3)ccc2=O)cc1 (racemic) [Example 361] | – | – | Nav1.1 current amplification rate (%) (human Nav1.1; [1]): 101%; Nav1.5 current amplification rate (%) (human Nav1.5; [2]): 112%
3 | CC1CC=C(c2ccc(=O)n(CC(=O)Nc3ccnc(C#N)c3)n2)CC1 (racemic) [Example 362] | – | – | Nav1.1 current amplification rate (%) (human Nav1.1; [1]): 133%; Nav1.5 current amplification rate (%) (human Nav1.5; [2]): 24%
4 | CC1CC=C(c2ccc(=O)n(CC(=O)Nc3ccnc(N4CCOCC4)c3F)n2)CC1 (racemic) [Example 383] | – | – | Nav1.1 current amplification rate (%) (human Nav1.1; [1]): 84%; Nav1.5 current amplification rate (%) (human Nav1.5; [2]): 51%
5 | CC1CC=C(c2ccc(=O)n(CC(=O)N3CCN(c4ccccn4)CC3)n2)CC1 (racemic) [Example 394] | 98% | 1% | –
6 | CC1CC=C(c2ccc(=O)n(CC(=O)N3CCN(c4cccnc4)CC3)n2)CC1 (racemic) [Example 395] | 343% | 15% | –
7 | Cc1ccc(N2CCN(C(=O)Cn3nc(C4=CCC(C)CC4)ccc3=O)CC2)cn1 (racemic) [Example 396] | 136% | 8% | –
8 | CC1CC=C(c2ccc(=O)n(CC(=O)N3CC=C(c4cncc(F)c4)CC3)n2)CC1 (racemic) [Example 397] | 273% | 49% | –
9 | CC1CC=C(c2ccc(=O)n(CC(=O)N3CC=C(c4cncnc4)CC3)n2)CC1 (racemic) [Example 398] | 175% | 29% | –
10 | COc1cnc(C2=CCN(C(=O)Cn3nc(C4=CCC(C)CC4)ccc3=O)CC2)cn1 (racemic) [Example 399] | 102% | 11% | –
11 | COc1ncc(C2=CCN(C(=O)Cn3nc(C4=CCC(C)CC4)ccc3=O)CC2)cn1 (racemic) [Example 400] | 238% | 24% | –
12 | CC1CC=C(c2ccc(=O)n(CC(=O)N3CCN(c4cncc(C(F)(F)F)c4)CC3)n2)CC1 (racemic) [Example 401] | 286% | 5% | –
13 | COc1cc(C2=CCC(C)CC2)nn(CC(=O)N2CCc3c(N4CCOCC4)cccc32)c1=O (racemic) [Example 473] | 487% | 128% | –
14 | COc1cc(C2=CCC(C(F)(F)F)CC2)nn(CC(=O)N2CCc3c(N4CCOCC4)cccc32)c1=O (racemic) [Example 474] | 235% | 26% | –
15 | COc1cc(=O)n(CC(=O)N2CCc3c(N4CCOCC4)cccc32)nc1C1=CCC(C(F)(F)F)CC1 (racemic) [Example 476] | 343% | 13% | –
16 | O=C(Cn1nc(C2=CCC3(CC2)CC3(F)F)ccc1=O)N1CCc2c(N3CCOCC3)cccc21 (racemic) [Example 478] | – | – | Nav1.1 current amplification rate (%) (human Nav1.1; compound 3 μmol/L, HEK293 stably expressing human Nav1.1): 345%; Nav1.5 current amplification rate (%) (human Nav1.5; compound 3 μmol/L, CHO-K1 stably expressing human Nav1.5): 23%
17 | COc1cc(C2=CCC(C(F)(F)F)CC2)nn(CC(=O)N2CCN(c3cncc(F)c3)CC2)c1=O (racemic) [Example 482] | 219% | 8% | –
18 | COc1cc(=O)n(CC(=O)N2CCN(c3cncc(F)c3)CC2)nc1C1=CCC(C(F)(F)F)CC1 (racemic) [Example 486] | 148% | 8% | –
19 | O=C(Cn1nc(C2=CCC(C(F)(F)F)CC2)ccc1=O)N1CCN(c2cncc(F)c2)CC1 (racemic) [Example 487] | 190% | 109% | –

Row | Structure (SMILES) | Nav1.1 current amplification rate (%) (human Nav1.1; [3]) | Nav1.5 current amplification rate (%) (human Nav1.5; [4]) | other results
20 | COc1cc(C2=CCC(C)CC2)nn(CC(=O)N2CCN(c3cncc(F)c3)CC2)c1=O (racemic) [Example 488] | 376% | 174% | –
21 | CC1CCC(c2ccc(=O)n(CC(=O)N3CCc4c(N5CCOCC5)cccc43)n2)CC1 (single isomer, unassigned) [Example 535] | 277% | 10% | –
22 | CC1CCN(c2ccc(=O)n(CC(=O)Nc3ccc4ocnc4c3)n2)CC1 [Example 50, N-(1,3-benzooxazol-5-yl)-2-[3-(4-methylpiperidin-1-yl)-6-oxopyridazin-1(6H)-yl]acetamide] | – | – | activation at 10 µM (human Nav1.1; 10 μmol/L compound, change of the area under the curve of Nav1.1 current (Test Result 1), read-out: Nav1.1 current amplification rate (%)): 155%; activation at 10 µM (human Nav1.5; 10 μmol/L compound, change of the area under the curve of Nav1.5 current (Test Result 1), read-out: Nav1.5 current amplification rate (%)): 4%
23 | CC1CCN(c2ccc(=O)n(CC(=O)Nc3ccc(C#N)nc3)n2)CC1 [Example 51] | 196% | 31% | –
24 | CC1CCN(c2ccc(=O)n(CC(=O)Nc3ccnc(C(F)(F)F)c3)n2)CC1 [Example 52] | 248% | 19% | –
25 | CC1CCN(c2ccc(=O)n(CC(=O)Nc3ccnc(C#N)c3)n2)CC1 [Example 53] | 161% | 11% | –
26 | CC1CCN(c2ccc(=O)n(CC(=O)Nc3cccc(C#N)c3)n2)CC1 [Example 55] | 111% | 27% | –
27 | CC1CCN(c2ccc(=O)n(CC(=O)Nc3ccc(C(F)(F)F)nc3)n2)CC1 [Example 59] | 180% | 56% | –
28 | CC1CCN(c2ccc(=O)n(CC(=O)Nc3cncc(C#N)c3)n2)CC1 [Example 60] | 57% | 21% | –
29 | CC1CCN(c2ccc(=O)n(CC(=O)Nc3cncc(C(F)(F)F)c3)n2)CC1 [Example 61] | 77% | 8% | –
30 | CC1CCN(c2ccc(=O)n(CC(=O)Nc3cncc(Cl)c3)n2)CC1 [Example 63] | 49% | 3% | –
31 | CC1CCN(c2ccc(=O)n(CC(=O)Nc3ccnc(N4CCOCC4)c3)n2)CC1 [Example 66] | 49% | 31% | –
32 | CC1CCN(c2ccc(=O)n(CC(=O)Nc3cccc(-n4ccnc4)c3)n2)CC1 [Example 67] | 177% | 18% | –
33 | Cc1nc2cc(NC(=O)Cn3nc(N4CCC(C)CC4)ccc3=O)ccc2o1 [Example 69] | 137% | 0% | –
34 | Cc1noc2ccc(NC(=O)Cn3nc(N4CCC(C)CC4)ccc3=O)cc12 [Example 70] | 68% | 0% | –
35 | CC1CCN(c2ccc(=O)n(CC(=O)Nc3ccn4nccc4c3)n2)CC1 [Example 71] | 131% | 13% | –
36 | CC1CCN(c2ccc(=O)n(CC(=O)Nc3ccn4ccnc4c3)n2)CC1 [Example 72] | 119% | 3% | –
37 | CC1CCN(c2ccc(=O)n(CC(=O)Nc3ccc4ncoc4c3)n2)CC1 [Example 73] | 92% | 1% | –
38 | COc1cc(NC(=O)Cn2nc(N3CCC(C)CC3)ccc2=O)ccn1 [Example 74] | 70% | −2% | –
